Patent EP4431115A1, “COMPOUND PHARMACEUTICAL PREPARATION CONTAINING OIL COMPONENT COMPRISING POLYOXYETHYLENE STRUCTURE” (CHUGAI SEIYAKU KABUSHIKI KAISHA, priority 2022, dated 2023)
≈ marks a conversion by molar mass, not a printed value. Bridge positions count the residues as written; N and C are the ends. Square brackets hold non-standard residues; d marks the D form. Peptide text beside a SMILES is read from it. * marks the point of attachment. hPhe(3,5-F2-4-CF3) = N[C@@H](CCc1cc(F)c(C(F)(F)F)c(F)c1)C(=O)O; hPhe(3-Cl-4-CF3) = N[C@@H](CCc1ccc(C(F)(F)F)c(Cl)c1)C(=O)O; NMeGly(cPent) = CN[C@H](C(=O)O)C1CCCC1; NMeCha = CN[C@@H](CC1CCCCC1)C(=O)O; Hyp = O=C(O)[C@@H]1C[C@@H](O)CN1; NMeF = CN[C@@H](Cc1ccccc1)C(=O)O; NMeD = CN[C@@H](CC(=O)O)C(=O)O; NMeL = CN[C@@H](CC(C)C)C(=O)O; NMeA = CN[C@@H](C)C(=O)O; Piperidide = C1CCN(*)CC1; Ac5c = NC1(C(=O)O)CCCC1; Aze = O=C(O)[C@@H]1CCN1; Sar = CNCC(=O)O; tBu = CC(C)(C)*

Test: Evaluation of solubility of cyclic peptide compound in phosphate buffer (Example 3-3)
Type: physicochemical
Conditions: 50 mM phosphate buffer solution pH 6.5, 37°C, 22 to 24 hours
Description: Evaluation of the solubility of the cyclic peptide compound was performed. To lyophilized powder of the compound, a 50 mM phosphate buffer solution (PPB: Phosphate buffer, pH 6.5) was added, and after shaking (at 37°C, 1800 rpm, for 22 to 24 hours), the mixed solution was filtered through a filter, and the compound concentration of the filtrate was measured by LC/MS/MS. Solubility was calculated from the measured compound concentration. The solubilities of the compounds 3, 4, 6, 7, and 8 were 11 µg/mL, 1 µg/mL, 1 µg/mL, 15 µg/mL, and 5 µg/mL, respectively.

SMILES	Solubility
CC(C)C[C@@H]1NC(=O)[C@H](Cc2ccccc2)N(C)C(=O)[C@H](COC(C)(C)C)NC(=O)[C@H](Cc2ccccc2)N(C)C(=O)[C@H](C)N(C)C(=O)[C@H](CC(C)C)N(C)C(=O)[C@@H](C)NC(=O)C[C@@H](C(=O)N2CCCCC2)NC(=O)[C@H](Cc2ccccc2)N(C)C(=O)[C@H]([C@@H](C)O)NC(=O)[C@H](CC(C)C)N(C)C1=O [Compound 4] ([dA][NMeL][NMeA][NMeF]S(tBu)[NMeF]L[NMeL]T[NMeF]D-Piperidide; lactam N-11)	1 µg/mL (≈ 0.697 µM)
CC[C@H](C)[C@@H]1NC(=O)[C@H](CC(C)C)N(C)C(=O)C[C@@H](C(=O)N2CCCCC2)N(C)C(=O)[C@H](C2CCCC2)N(C)C(=O)C2(CCCC2)NC(=O)[C@@H]2CCCN2C(=O)[C@H](CCc2ccc(C(F)(F)F)c(Cl)c2)NC(=O)CN(C)C(=O)[C@H](CC2CCCCC2)N(C)C(=O)[C@@H]2CCN2C(=O)[C@H](C)N(C)C1=O [Compound 6] ([NMeL]I[NMeA][Aze][NMeCha][Sar][hPhe(3-Cl-4-CF3)]P[Ac5c][NMeGly(cPent)][NMeD]-Piperidide; lactam N-11)	1 µg/mL (≈ 0.688 µM)
CCO[C@@H]1C[C@H]2C(=O)NC3(CCCC3)C(=O)N(C)[C@@H](C3CCCC3)C(=O)N(C)[C@H](C(=O)N(C)C)CC(=O)N(C)[C@@H](CC(C)C)C(=O)N[C@@H]([C@@H](C)CC)C(=O)N(C)[C@@H](C)C(=O)N3CC[C@H]3C(=O)N(C)[C@@H](CC3CCCCC3)C(=O)N(C)CC(=O)N[C@@H](CCc3cc(F)c(C(F)(F)F)c(F)c3)C(=O)N2C1 [Compound 8] ([NMeL]I[NMeA][Aze][NMeCha][Sar][hPhe(3,5-F2-4-CF3)][Hyp](Et)[Ac5c][NMeGly(cPent)][NMeD]-NMe2; lactam N-11)	5 µg/mL (≈ 3.43 µM)
